Assay results reported in patent US20080171350A1, “Neural Cell Differentiation Method From Es Cells” (NOVARTIS FORSCHUNGSSTIFTUNG, ZWEIGNIEDERLASSUNG FRIEDRICH …, priority 2004, published 2008).

System: ES cells-derived neurons
Assay: Whole-cell patch-clamp recordings on ES cells-derived neurons
Type: cell-based, mouse
Details: cells in culture for 10 and up to 22 days

NS(=O)(=O)c1cccc2c1c([N+](=O)[O-])cc1nc(O)c(O)nc12 [NBQX]
block of spontaneous synaptic currents (SSCs): blocking of synaptic currents
